pIC50: −log10 of the molar value. Calls of active or inactive are those of the source. No cut-off for these calls is given here.
Tests used:
[1] = Inhibition of human SULU1
CAPAN-1 = assay: Antitumor activity against human Capan1 cells xenografted in athymic nu/nu mouse assessed as tumor growth inhibition at 50 mg/kg administered for 5 days; assay type: functional, organism-based

NC(=O)c1cc(F)cc2c1C(=O)N(C1CCN(C3CCC(F)(F)CC3)CC1)C2
pIC50 [1]: < 5.00

Cn1nnc2c(C(N)=O)ncn2c1=O
TGI (CAPAN-1): inactive

NC(=O)c1cccc2c1C(=O)N(C1CCN(C3CCC(F)(F)CC3)CC1)C2
pIC50 (MCF7): < 5.00

Reference: ChEMBL document CHEMBL3603755 (J Med Chem, 2015)
